In patent US20100292335A1, “USE OF ORGANIC COMPOUNDS” (priority 2007, published 2010):

System: bradykinin peptides BK-(1-7), BK-(1-9)
Experiment: Bradykinin peptide levels in blood and tissues of non-diabetic and streptozotocin-diabetic (mRen-2)27 rats after 16 weeks aliskiren
Format: in vivo, transgenic (mRen-2)27 rats
Conditions: for Effect of aliskiren on BK-(1-7) level / Effect of aliskiren on BK-(1-9) level / Effect of aliskiren on BK-(1-7)/(1-9) ratio: 10 mg/kg/day 16 weeks, 10 mg/kg/day; for Heart BK-(1-7), Mean ± SEM / Heart BK-(1-7)/(1-9) ratio, Mean ± SEM / Heart BK-(1-9), Mean ± SEM: aliskiren 10 mg/kg/day 16 weeks
Experimental: As an example, diabetes is induced in 6 week old female heterozygous transgenic (mRen-2)27 rats by administration of 55 mg/kg streptozotocin diluted in […], pH 4.5 by tail vein injection. Non-diabetic rats are injected with citrate buffer alone [Campbell D J, Kelly D J, Wilkinson-Berka J L, Cooper M E, Skinner S L. Increased bradykinin and “normal” angiotensin peptide levels in diabetic Sprague-Dawley and transgenic (mRen-2)27 rats. Kidney Int 1999; 56:211-221.1. Diabetic and non-diabetic rats are randomized to receive either no drug or aliskiren (10 mg/kg/day by osmotic minipump) from 6-7 weeks of age for a duration of 16 weeks. The minipumps are changed every 2 weeks and the amount of aliskiren in the minipumps is adjusted according to the body weight of the rats. Diabetic rats are injected subcutaneously with 2-4 units insulin (Ultratard, Novo Nordisk, Denmark).every second day (3 times a week). If rats have continuously elevated blood glucose levels (>33.3 mmol/L) over a couple of weeks, they are injected with 3 units every day. When glucose levels decrease to 33.3 mmol/L they are administered 2-4 units insulin every second day. After 16 weeks drug treatment, rats are anesthetized with ketamine (75 mg/kg) and xylazine (10 mg/kg) in combination, and blood and tissue is collected for peptide assay. Peptides are measured as previously described [Lawrence A C, Evin G, Kladis A, Campbell D J. An alternative strategy for the radioimmunoassay of angiotensin peptides using amino-terminal-directed antisera: measurement of eight angiotensin peptides in human plasma. J Hypertens 1990; 8:715-724; Campbell D J, Lawrence A C, Towrie A, Kladis A, Valentijn A J. Differential regulation of angiotensin peptide levels in plasma and kidney of the rat. Hypertension 1991; 18:763-773; Campbell D J, Kladis A, Duncan A-M. Nephrectomy, converting enzyme inhibition and angiotensin peptides. Hypertension 1993; 22:513-522; Campbell D J, Kladis A, Duncan A-M. Bradykinin peptides in kidney, blood, and other tissues of the rat. Hypertension 1993; 21:155-165; Campbell D J, Kladis A, Duncan A-M. Effects of converting enzyme inhibitors on angiotensin and bradykinin peptides. Hypertension 1994; 23:439-449; Campbell D J, Rong P, Kladis A, Rees B, Skinner S L. Angiotensin and bradykinin peptides in the TGR(mRen-2)27 rat. Hypertension 1995; 25:1014-1020]. Only the left kidney is collected for peptide assay. The heart refers to the cardiac ventricles (both right and left ventricle). The Ang I levels in heart are below the limit of detection of the assay.
There are 4 groups of rats: • 1. Non-diabetic control. • 2. Non-diabetic administered aliskiren 10 mg/kg/day. • 3. Diabetic control. • 4. Diabetic administered aliskiren 10 mg/kg/day.

[1] = Heart, control rats, listed as Aliskiren
[2] = Heart, diabetic rats, listed as Aliskiren

For `COCCCOc1cc(C[C@@H](C[C@H](N)[C@@H](O)C[C@H](C(=O)NCC(C)(C)C(N)=O)C(C)C)C(C)C)ccc1OC` [aliskiren, 2(S),4(S),5(S),7(S)-N-(3-amino-2,2-dimethyl-3-oxopropyl)-2,7-di(1-methylethyl)-4-hydroxy-5-amino-8-[4-methoxy-3-(3-methoxy-propoxy)phenyl]-octanamide], the “Effect of aliskiren on BK-(1-7) level” value (Blood, control rats) was “does not affect”, the “Effect of aliskiren on BK-(1-9) level” value (Blood, control rats) was “does not affect” and the “Effect of aliskiren on BK-(1-7) level” value (Blood, diabetic rats) was “does not affect”. The “Effect of aliskiren on BK-(1-7)/(1-9) ratio” value (Blood, diabetic rats) was “increase”, the “Effect of aliskiren on BK-(1-9) level” value (Blood, diabetic rats) was “does not affect” and the “Effect of aliskiren on BK-(1-7) level” value (Brain, control rats) was “does not affect”. For the same compound, the “Effect of aliskiren on BK-(1-9) level” value (Brain, control rats) was “does not affect”, the “Effect of aliskiren on BK-(1-7) level” value (Brain, diabetic rats) was “does not affect” and the “Effect of aliskiren on BK-(1-9) level” value (Brain, diabetic rats) was “does not affect”. For the same compound, the “Effect of aliskiren on BK-(1-7) level” value (Heart, control rats) was “increased”, the “Effect of aliskiren on BK-(1-7)/(1-9) ratio” value (Heart, control rats) was “did not affect” and the “Effect of aliskiren on BK-(1-9) level” value (Heart, control rats) was “increased”. The “Effect of aliskiren on BK-(1-7) level” value [1] was “increase”, the “Effect of aliskiren on BK-(1-7)/(1-9) ratio” value [1] was “no change” and the “Effect of aliskiren on BK-(1-9) level” value [1] was “increase”. For the same compound, the “Heart BK-(1-7), Mean ± SEM” value (Heart, control rats) was 19.2 ± 2.5 fmol/g, the “Heart BK-(1-7)/(1-9) ratio, Mean ± SEM” value (Heart, control rats) was 1.88 ± 0.18 mol/mol and the “Heart BK-(1-9), Mean ± SEM” value (Heart, control rats) was 10.6 ± 1.2 fmol/g. For the same compound, the “Effect of aliskiren on BK-(1-7) level” value (Heart, diabetic rats) was “increased”, the “Effect of aliskiren on BK-(1-7)/(1-9) ratio” value (Heart, diabetic rats) was “did not affect” and the “Effect of aliskiren on BK-(1-9) level” value (Heart, diabetic rats) was “increased”. For the same compound, the “Effect of aliskiren on BK-(1-7) level” value [2] was “increase”, the “Effect of aliskiren on BK-(1-7)/(1-9) ratio” value [2] was “no change” and the “Effect of aliskiren on BK-(1-9) level” value [2] was “increase”. The “Heart BK-(1-7), Mean ± SEM” value (Heart, diabetic rats) was 13.9 ± 1.5 fmol/g, the “Heart BK-(1-7)/(1-9) ratio, Mean ± SEM” value (Heart, diabetic rats) was 2.47 ± 0.37 mol/mol and the “Heart BK-(1-9), Mean ± SEM” value (Heart, diabetic rats) was 6.4 ± 0.7 fmol/g. The “Effect of aliskiren on BK-(1-7) level” value (Kidney, control rats) was “does not affect”, the “Effect of aliskiren on BK-(1-9) level” value (Kidney, control rats) was “does not affect” and the “Effect of aliskiren on BK-(1-7) level” value (Kidney, diabetic rats) was “does not affect”. For the same compound, the “Effect of aliskiren on BK-(1-9) level” value (Kidney, diabetic rats) was “does not affect”, the “Effect of aliskiren on BK-(1-7) level” value (Lung, control rats) was “does not affect” and the “Effect of aliskiren on BK-(1-9) level” value (Lung, control rats) was “does not affect”. The “Effect of aliskiren on BK-(1-7) level” value (Lung, diabetic rats) was “does not affect” and the “Effect of aliskiren on BK-(1-9) level” value (Lung, diabetic rats) was “does not affect”.
